Consider two compounds from ChEMBL document CHEMBL1150236, “Dragonamides C and D, linear lipopeptides from the marine cyanobacterium brown Lyngbya polychroa” (2008).

Square brackets hold non-standard residues; d marks the D form. Peptide text beside a SMILES is read from it. * marks the point of attachment. NMeV = CN[C@H](C(=O)O)C(C)C; X1 = C#CCCC/C(=C\C(=O)*)OC; X2 = C#CCCCC(=O)CC(=O)*

What all share (assay type): functional
In one experiment the test system is IMR-32. Description: Cytotoxicity against human IMR32 cells after 48 hrs by MTT assay. The note with it: IMR-32, 48 h.
A further experiment concerns HT-29. Description: Cytotoxicity against human HT29 cells after 48 hrs by MTT assay. To be noted: HT-29, 48 h. Background: Tetrazolium assays rely on reduction of a dye to a coloured formazan, in cell work by metabolically active cells.
The test system of the next experiment is U2OS. As to the kind of experiment: Cytotoxicity against human U2OS cells after 48 hrs by MTT assay.

A word on the GI50: it is the concentration that inhibits growth by half. With `C#CCCCC(=O)CC(=O)N(C)[C@H](C(=O)N(C)[C@H](C(=O)N(C)[C@H](C(=O)N(C)[C@H](C(N)=O)C(C)C)C(C)C)C(C)C)C(C)C` [DRAGONAMIDE D] (X2-[NMeV][NMeV][NMeV][NMeV]-NH2), the GI50 is 51 µM in the experiment on IMR-32, 32 µM in the experiment on HT-29 and 59 µM in the experiment on U2OS.
With `C#CCCC/C(=C\C(=O)N(C)[C@H](C(=O)N(C)[C@H](C(=O)N(C)[C@H](C(=O)N(C)[C@H](C(N)=O)C(C)C)C(C)C)C(C)C)C(C)C)OC` [DRAGONAMIDE C] (X1-[NMeV][NMeV][NMeV][NMeV]-NH2), the figures for the GI50 in the experiment with IMR-32, in the experiment with HT-29 and in the experiment on U2OS were 49 µM, 22 µM and 56 µM, respectively.
